Consider one molecule from patent publication US8563254B2, “Biomarkers of tumor pharmacodynamic response” (Novartis AG, priority 2009, dated 2013).

In assay [1] the test system is GTL-16 cells. The assay can be described thus: Quantitative RT-PCR of IL-8 mRNA, GTL-16. Type of assay: cell-based, human. Conditions: GTL-16, 0.3 μM, 16 hr, treated versus untreated. Here is the method: Total cellular RNA was extracted from the GTL-16 and A375 cell lines using RNeasy mini kit (Qiagen, Inc., Valencia, Calif., USA). Total RNA quantitation was carried out using a RiboGreen assay (Invitrogen Corporation, Carlsbad, Calif., USA). 1 μg of total RNA was reverse transcribed using AMV reverse transcriptase (Reverse Transcription Kit, Promega U.S., Madison, Wis., USA). A 20 μl reaction cocktail was prepared as follows; 1 μg total RNA in 10 μl of RNase, DNase-free H2O, 4 μl of 25 mM MgCl2, 2 μl of 10× reverse transcriptase buffer, 2 μl of 10 mM dNTP's, 1 μl of 500 μg ml^−1 random hexamers, 1.5 μl of 10 μl ml^−1, and 40 U μl^−1 0.5 μl of recombinant RNase Inhibitor. Real time PCR was performed using a 7900HT fast real-time PCR system (Applied Biosystems, Foster City, Calif., USA) using the Power SYBR Green PCR master mix (Applied Biosystems). The primers for IL-8 and GAPDH were: IL-8 sense: 5′-[…]-3′ (SEQ ID NO:3) and IL-8 antisense:
5′-[…]-3′ (SEQ ID NO:4); and GAPDH sense:
5′-[…]-3′ (SEQ ID NO:5), and GAPDH antisense;
5′-[…]-3′. (SEQ ID NO:6) The amplification process involved an initial 5 min denaturing step at 95° C. This was followed by annealing reactions for both IL-8 and GAPDH, of 45 s at 95° C. with 230 s at 68° C. for 34 cycles and 1 min at 95° C. with 1 min at 60° C. and 1 min 72° C. for 30 cycles, respectively. The final extension was 10 min at 72° C. […]

In assay [2] the test system is GTL-16 cells. The assay can be described thus: IL-8 ELISA of GTL-16 culture supernatants. Type of assay: cell-based, human. The method, then: A malignant melanoma cell line A375 (American Type Culture Collection, Manassas, Va., USA) and gastric cancer cell line, GTL-16 (Prof Silvia Giordano, Institute for Cancer Research and Treatment, Turin, Italy) were cultured in RPMI 1640 supplemented with 10% FBS and 1% penicillin-streptomycin at 37° C. in 5% CO2 (GIBCO reagents, Invitrogen Corporation, Carlsbad, Calif., USA). Cell numbers were determined by ViCell™ XR Cell Viability Analyzer 2.03 (Beckman Coulter, Inc., Fullerton, Calif., USA). Cells were seeded in poly-D-lysine coated plates (BIOCOAT Cell Environments, Becton Dickinson Biosciences, San Jose, Calif., USA).
Human IL-8 levels in cell culture supernatants from GTL-16 and A375 cells were measured by a sandwich enzyme-linked immunosorbent assay (R&D Systems, Inc., Minneapolis, Minn., USA). Cell culture supernatants were collected from DMSO and NVP-AUY922 treated cells 16, 24, 48 and 72 hr post-treatment and stored at −20° C.
To better characterize the relationship between Hsp90 inhibitor treatment and effects on IL-8 production, GTL-16 and A375 cells were washed and treated for 24 hr with fresh medium containing various concentrations of NVP-AUY922. For this length of treatment time, maximal inhibition of IL-8 accumulation appears to be reached at 0.3 μM as measured by enzyme-linked immunosorbent assay; this equates to 80% and 60% reductions in GTL-16 and A375 cultures, respectively (FIGS. 2A, B).

Structures are written as SMILES.

A word on the inhibition: it is the change of the read-out against control, counted positive when it falls. As to `CCNC(=O)c1noc(-c2cc(C(C)C)c(O)cc2O)c1-c1ccc(CN2CCOCC2)cc1` [NVP-AUY922, 5-(2,4-Dihydroxy-5-isopropyl-phenyl)-4-(4-morhpolin-4-ylmethyl-phenyl)-isoxazole-3-carboxylic acid ethylamide], the “decrease in IL-8 mRNA expression” value in the assay with GTL-16 cells [1] was 85%. The “time within which IL-8 production dramatically declines” value in the assay with GTL-16 cells [2] (GTL-16, 0.3 μM) is ≤ 16 h. Further, the “concentration at which maximal inhibition of IL-8 accumulation is reached” value in the assay with GTL-16 cells [2] (GTL-16, 24 hr treatment) is 0.3 µM. Further, the inhibition at 0.3 µM in the assay on GTL-16 cells [2] (Homo sapiens, GTL-16, 0.3 μM, 24 hr, ELISA, read-out: reduction of IL-8 accumulation (maximal inhibition)) was found to be 80%.
